From patent US11820766B2, “Monoacylglycerol lipase modulators” (Janssen Pharmaceutica NV, priority 2018, dated 2023) come the findings set out here.

Each structure is given as a SMILES string.

In the first test the target is T1, human MGL from HeLa cells (Homo sapiens, UniProt Q99685).
T1 construct: combining endogenously expressed MGL from HeLa cells with test compounds; endogenous in cells; host or cells: HeLa cells / cell homogenates
T1 sequence (Q99685 1-303): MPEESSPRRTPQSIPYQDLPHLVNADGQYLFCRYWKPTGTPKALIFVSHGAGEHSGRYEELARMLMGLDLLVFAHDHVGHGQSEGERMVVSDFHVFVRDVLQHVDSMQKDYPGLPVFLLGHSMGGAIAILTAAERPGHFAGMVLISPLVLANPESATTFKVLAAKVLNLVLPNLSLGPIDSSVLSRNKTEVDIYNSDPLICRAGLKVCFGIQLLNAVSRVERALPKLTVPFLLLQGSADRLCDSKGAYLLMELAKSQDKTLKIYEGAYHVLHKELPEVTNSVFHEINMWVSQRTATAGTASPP
As to the kind of experiment: In vitro MGL activity assay: [glycerol-1,3-3H]-oleyl glycerol cleavage by MGL from HeLa cells. The class given is biochemical. The conditions noted are these: 300 nM [Glycerol-1,3-3H]-oleyl glycerol, one hour. An excerpt:
MGL is the predominant hydrolase in HeLa cells/cell homogenates.
Take `C[C@H]1c2nn(C)c(-c3cc(F)c(F)c(F)c3)c2CCN1C(=O)c1cnn2c1OCCC2` [Example 554, 6,7-Dihydro-5H-pyrazolo[5,1-b][1,3]oxazin-3-yl-[(7S)-2,7-dimethyl-3-(3,4,5-trifluorophenyl)-5,7-dihydro-4H-pyrazolo[3,4-c]pyridin-6-yl]methanone]: the IC50 was 57.6 nM.

Consider `C[C@H]1c2nn(C)c(-c3cc(F)c(F)c(F)c3)c2CCN1C(=O)c1cnn(C)c1C1CC1(F)F` (stereo partly drawn) [Example 336, (5-(2,2-Difluorocyclopropyl)-1-methyl-1H-pyrazol-4-yl)((S)-2,7-dimethyl-3-(3,4,5-trifluorophenyl)-4,5-dihydro-2H-pyrazolo[3,4-c]pyridin-6-yl)methanone], for which it took 8.7 nM to reach half-maximal inhibition (IC50).

In the case of `C[C@H]1c2nn(C)c(-c3cccc(OC(F)(F)F)c3)c2CCN1C(=O)c1ccc2ncccc2c1` [Example 501, [(7S)-2,7-Dimethyl-3-[3-(trifluoromethoxy)phenyl]-5,7-dihydro-4H-pyrazolo[3,4-c]pyridin-6-yl]-(6-quinolyl)methanone], the IC50 was determined as 58.6 nM. Compared with the last compound, the IC50 is about 6.7-fold higher. The same measure, in the same setting: for `C[C@H]1c2nn(C)c(-c3cc(F)c(F)c(F)c3)c2CCN1C(=O)c1cccc2c1CCOC2` [Example 576, [(7S)-2,7-Dimethyl-3-(3,4,5-trifluorophenyl)-5,7-dihydro-4H-pyrazolo[3,4-c]pyridin-6-yl]-isochroman-5-yl-methanone] the value was 18.9 nM; for `C[C@H]1c2nn(C)c(-c3cc(F)c(F)c(F)c3)c2CCN1C(=O)c1cnc2cccc(F)c2c1` [Example 545, [(7S)-2,7-Dimethyl-3-(3,4,5-trifluorophenyl)-5,7-dihydro-4H-pyrazolo[3,4-c]pyridin-6-yl]-(5-fluoro-3-quinolyl)methanone], 11.7 nM; for `Cc1ccnc2c(C(=O)N3CCc4c(nn(C)c4-c4cc(F)c(F)c(F)c4)[C@@H]3C)cnn12` [Example 450, [(7S)-2,7-Dimethyl-3-(3,4,5-trifluorophenyl)-5,7-dihydro-4H-pyrazolo[3,4-c]pyridin-6-yl]-(7-methylpyrazolo[1,5-a]pyrimidin-3-yl) methanone], 172 nM. The same measure, in the same setting: for `Cc1c(C(=O)N2CCc3c(nn(C)c3-c3cc(F)c(F)c(F)c3)[C@@H]2C)ccn1C` [Example 351, (1,2-Dimethylpyrrol-3-yl)-[(7S)-2,7-dimethyl-3-(3,4,5-trifluorophenyl)-5,7-dihydro-4H-pyrazolo[3,4-c]pyridin-6-yl]methanone] the value was 8.9 nM; for `C[C@H]1c2nn(C)c(-c3cc(F)c(F)c(F)c3)c2CCN1C(=O)c1nc(-c2ccccc2)cn1C` [Example 600, [(7S)-2,7-Dimethyl-3-(3,4,5-trifluorophenyl)-5,7-dihydro-4H-pyrazolo[3,4-c]pyridin-6-yl]-(1-methyl-4-phenyl-imidazol-2-yl)methanone], 110 nM. Still for that read-out and setting: for `C[C@H]1c2nn(C)c(-c3cc(F)c(F)c(F)c3)c2CCN1C(=O)c1cc2ccccc2nn1` [Example 478, Cinnolin-3-yl-[(7S)-2,7-dimethyl-3-(3,4,5-trifluorophenyl)-5,7-dihydro-4H-pyrazolo[3,4-c]pyridin-6-yl]methanone] the value was 112 nM; for `COc1cc(Cl)cc(-c2c3c(nn2C)[C@H](C)N(C(=O)c2c(C)nc4ccccn24)CC3)c1` [Example 395, [(7S)-3-(3-Chloro-5-methoxy-phenyl)-2,7-dimethyl-5,7-dihydro-4H-pyrazolo[3,4-c]pyridin-6-yl]-(2-methylimidazo[1,2-a]pyridin-3-yl) methanone], 6.73 nM.

Staying with this test, now noted: 300 nM [Glycerol-1,3-3H]-oleyl glycerol, one hour incubation.
Take `Cn1nc2c(c1-c1cccc(Cl)c1)CCN(C(=O)c1ccc3ncccc3c1)C2` [Example 99, (3-(3-Chlorophenyl)-2-methyl-2,4,5,7-tetrahydro-6H-pyrazolo[3,4-c]pyridin-6-yl)(quinolin-6-yl)methanone]: 268 nM corresponded to half-maximal inhibition (IC50). This counts as sub-micromolar.

The compound `Cn1nc2c(c1-c1ccccc1)CCN(C(=O)c1ccc3occc3c1)C2` [Example 35, Benzofuran-5-yl(2-methyl-3-phenyl-2,4,5,7-tetrahydro-6H-pyrazolo[3,4-c]pyridin-6-yl)methanone] showed a half-maximal inhibitory concentration (IC50) of 482 nM.

For the compound `C[C@H]1c2nn(C)c(-c3cc(F)c(F)c(F)c3)c2CCN1C(=O)c1nccc2ccccc12` [Example 237, (S)-(2,7-Dimethyl-3-(3,4,5-trifluorophenyl)-2,4,5,7-tetrahydro-6H-pyrazolo[3,4-c]pyridin-6-yl)(isoquinolin-1-yl)methanone], the IC50 was 1.89 nM. Same read-out and setting: the same measure for `C[C@H]1c2nn(C)c(-c3cc(F)c(F)c(F)c3)c2CCN1C(=O)c1cnn(C)c1C1CC1` [Example 201, (S)-(5-Cyclopropyl-1-methyl-1H-pyrazol-4-yl)(2,7-dimethyl-3-(3,4,5-trifluorophenyl)-2,4,5,7-tetrahydro-6H-pyrazolo[3,4-c]pyridin-6-yl)methanone]: 6.26 nM.

Regarding `C[C@H]1c2nn(C)c(-c3cc(F)c(F)c(F)c3)c2CCN1C(=O)c1cc(-n2nccn2)cc(C(F)(F)F)c1` [Example 287, [(7S)-2,7-Dimethyl-3-(3,4,5-trifluorophenyl)-5,7-dihydro-4H-pyrazolo[3,4-c]pyridin-6-yl]-[3-(triazol-2-yl)-5-(trifluoromethyl)phenyl]methanone], the IC50 was 60.4 nM. With `COc1nccc(C(=O)N2CCc3c(nn(C)c3-c3cc(F)c(F)c(F)c3)[C@@H]2C)c1F` [Example 315, [(7S)-2,7-Dimethyl-3-(3,4,5-trifluorophenyl)-5,7-dihydro-4H-pyrazolo[3,4-c]pyridin-6-yl]-(3-fluoro-2-methoxy-4-pyridyl)methanone], the IC50 amounted to 42.4 nM. On the same count and under the same terms, the same measure for `C[C@H]1c2nn(C)c(-c3cc(F)cc(F)c3)c2CCN1C(=O)c1cccc(OCCF)c1F` [Example 141, (S)-(3-(3,5-Difluorophenyl)-2,7-dimethyl-2,4,5,7-tetrahydro-6H-pyrazolo[3,4-c]pyridin-6-yl)(2-fluoro-3-(2-fluoroethoxy)phenyl)methanone]: 1.72 nM; for `Cn1nc2c(c1-c1ccccc1)CCN(C(=O)c1cccc(OC(F)(F)F)n1)C2` [Example 25, (2-Methyl-3-phenyl-2,4,5,7-tetrahydro-6H-pyrazolo[3,4-c]pyridin-6-yl)(6-(trifluoromethoxy)pyridin-2-yl)methanone]: 2430 nM.

`Cn1nc2c(c1-c1ccccc1)CCN(C(=O)c1cccc3[nH]c(C(F)(F)F)nc13)C2` [Example 72, (2-Methyl-3-phenyl-2,4,5,7-tetrahydro-6H-pyrazolo[3,4-c]pyridin-6-yl)(2-(trifluoromethyl)-1H-benzo[d]imidazol-4-yl)methanone] returned an IC50 of 2320 nM. This IC50 and that of the compound before are within 1.5-fold of each other.

In the case of `C[C@H]1c2nn(C)c(-c3cc(F)c(F)c(F)c3)c2CCN1C(=O)c1ccc(-c2ccn[nH]2)cc1` [Example 269, [(7S)-2,7-Dimethyl-3-(3,4,5-trifluorophenyl)-5,7-dihydro-4H-pyrazolo[3,4-c]pyridin-6-yl]-[4-(1H-pyrazol-5-yl)phenyl]methanone], half-maximal inhibition (IC50) was put at 8.92 nM. `Cn1nc2c(c1-c1ccccc1)CCN(C(=O)c1ccnc3ccccc13)C2` [Example 86, (2-Methyl-3-phenyl-2,4,5,7-tetrahydro-6H-pyrazolo[3,4-c]pyridin-6-yl)(quinolin-4-yl)methanone] gave an IC50 of 32.4 nM. `COc1ccc(C(=O)N2CCc3c(nn(C)c3-c3cc(F)c(F)c(F)c3)[C@@H]2C)cn1` [Example 300, [(7S)-2,7-Dimethyl-3-(3,4,5-trifluorophenyl)-5,7-dihydro-4H-pyrazolo[3,4-c]pyridin-6-yl]-(6-methoxy-3-pyridyl)methanone]: half-maximal inhibition (IC50) was put at 263 nM. This IC50 is about 8.1-fold higher than that of the compound before. Compound `Cn1nc2c(c1-c1ccccc1)CCN(C(=O)c1cnn3ccccc13)C2` [Example 74, (2-Methyl-3-phenyl-2,4,5,7-tetrahydro-6H-pyrazolo[3,4-c]pyridin-6-yl)(pyrazolo[1,5-a]pyridin-3-yl)methanone] came in with an IC50 of 613 nM.

In turn, `Cn1nc2c(c1-c1ccccc1)CCN(C(=O)c1cccc3occc13)C2` [Example 34, Benzofuran-4-yl(2-methyl-3-phenyl-2,4,5,7-tetrahydro-6H-pyrazolo[3,4-c]pyridin-6-yl)methanone] had an IC50 of 300 nM.

The compound `C[C@H]1c2nn(C)c(-c3cc(F)c(F)c(F)c3)c2CCN1C(=O)c1cnc2cccnc2c1` [Example 245, (S)-(2,7-Dimethyl-3-(3,4,5-trifluorophenyl)-2,4,5,7-tetrahydro-6H-pyrazolo[3,4-c]pyridin-6-yl)(1,5-naphthyridin-3-yl)methanone] had an IC50 of 122 nM. On the same count and under the same terms, for `C[C@H]1c2nn(C)c(-c3cc(F)c(F)c(F)c3)c2CCN1C(=O)c1cccc(OC(F)(F)F)c1` [Example 262, [(7S)-2,7-Dimethyl-3-(3,4,5-trifluorophenyl)-5,7-dihydro-4H-pyrazolo[3,4-c]pyridin-6-yl]-[3-(trifluoromethoxy)phenyl]methanone] the value was 52.8 nM; for `C[C@H]1c2nn(C)c(-c3cc(F)c(F)c(F)c3)c2CCN1C(=O)c1ccc2nccnc2c1` [Example 242, (S)-(2,7-Dimethyl-3-(3,4,5-trifluorophenyl)-2,4,5,7-tetrahydro-6H-pyrazolo[3,4-c]pyridin-6-yl)(quinoxalin-6-yl)methanone], 22.3 nM. For `C[C@H]1c2nn(C)c(-c3cc(F)c(F)c(F)c3)c2CCN1C(=O)c1nccc2c1ccn2C` [Example 217, (S)-(2,7-Dimethyl-3-(3,4,5-trifluorophenyl)-2,4,5,7-tetrahydro-6H-pyrazolo[3,4-c]pyridin-6-yl)(1-methyl-1H-pyrrolo[3,2-c]pyridin-4-yl)methanone], inhibition was half-maximal at 5.07 nM (IC50).

For orientation: IC50 means the concentration that gives 50% inhibition. A high value points to a need for much substance.
